{"source": "patent US8569374B2", "about": "“NADPH oxidase inhibition pharmacotherapies for obstructive sleep apnea syndrome and its associated morbidities” (The Trustees of the University of Pennsylvania, priority 2004, dated 2013)", "key": {"[1]": {"tested_on": "iNOS mRNA", "test": "Taqman real-time PCR of iNOS gene response to LTIH, lateral basal forebrain", "format": "in vivo, mice", "settings": "apocynin throughout LTIH", "excerpt": "(§1) A detailed description of the long-term intermittent hypoxia (LTIH) protocol was recently published. An automated nitrogen/oxygen delivery profile system (Oxycycler model A84XOV; Biospherix, Redfield, N.Y.) produced brief reductions in housing chamber ambient oxygen levels from 21% to 10% for 5 sec every 90 sec, resulting in arterial oxyhemoglobin saturation fluctuations between 95-98% and 83-86%. Sham LTIH, with ambient FIO2 fluctuations from 21% to 19% every 90 sec, held arterial oxyhemoglobin values constant between 96-98%. Both conditions were produced for 10 hr of the lights-on period for a total of 8 wks. Humidity, ambient CO2 and environmental temperature were held constant. To determine if LTIH results in lasting increases in NADPH oxidase and microglial gene responses, real-time Taqman PCR was performed on laser-captured microdissections or macropunches of selected brain regions in mice exposed to sham LTIH or LTIH, two weeks into recovery to parallel sleep studies, using our methods, as previously published (12, 25). Real-time measurement of a NADPH oxidase subunit (p67^phox). […]"}, "[2]": {"tested_on": "WT mice exposed to LTIH", "test": "Sleep/wake recordings and murine multiple sleep latency test after long-term intermittent hypoxia (LTIH)", "format": "in vivo", "settings": "for sleep latency: vs LTIH DMSO vehicle-treated mice", "excerpt": "Ten-week old male C57BL/6J (B6) mice, gp91^phox−/− mice (B6.129S6-Cybb^tmldin) backcrossed 12 generations to C57BL/6J 000664 and gp91^phox+/+ (WT) backcrossed substrain C57BL/6J 000664 mice (Jackson Laboratory, Bar Harbor, Me.) were studied. Methods and study protocols were approved in full by the Institutional Animal Care and Use Committee of the University of Pennsylvania, conforming with the revised NIH Office of Laboratory Animal Welfare Policy. Food and water were provided ad libitum. Mice were confirmed pathogen free at the time of studies.\nA detailed description of the long-term intermittent hypoxia (LTIH) protocol was recently published. An automated nitrogen/oxygen delivery profile system (Oxycycler model A84XOV; Biospherix, Redfield, N.Y.) produced brief reductions in housing chamber ambient oxygen levels from 21% to 10% for 5 sec every 90 sec, resulting in arterial oxyhemoglobin saturation fluctuations between 95-98% and 83-86%. Sham LTIH, with ambient FIO2 fluctuations from 21% to 19% every 90 sec, held arterial oxyhemoglobin values constant between 96-98%. Both conditions were produced for 10 hr of the lights-on period for a total of 8 wks. Humidity, ambient CO2 and environmental temperature were held constant.\nTo determine if NADPH oxidase inhibition would also prevent LTIH gene responses, a third series of mice examined for gene responses were WT mice treated systemically throughout LTIH or sham LTIH with 3 mg/kg/day apocynin (Sigma-Aldrich) in DMSO, DMSO or PBS delivered subcutaneously (n=10/group) by way of micro-osmotic pump (1002, Durect, Cupertino, Calif.).\nAfter 8 wks of LTIH or sham LTIH exposures, mice were returned to normoxic conditions for 1 wk. Surgical implantation of electrodes and electrophysiological recordings followed using previously described electrode implantation methods (32). Following 3 d post-operative recovery, mice were connected to recording cables in individual cages, and 4 d later sleep recordings were initiated (beginning 2 wk into recovery from LTIH). Baseline sleep was recorded for 5 days. On recording day 6, a baseline murine multiple sleep latency test (MMSLT) was performed (4 nap opportunities between 2 p.m. and 4 p.m.) to measure baseline sleep propensity (33). On recording day 7, sleep deprivation was performed for 6 hours of the light period (8 a.m. to 2 p.m.), followed by a second MSLT and then recovery sleep was recorded for 12 h. The behavioral state acquisition and analysis program used for these studies was ACQ 3.4 (34), with modifications and behavioral state parameters as previously described (7, 9, 32). Primary variables were total sleep time/24 hr, total NREM sleep time/24 hr and REM sleep time/24 hr, and average sleep latency, before and after short-term sleep loss.\nTo further investigate the role of NADPH oxidase in the LTIH-induced hypersomnolence and sleepiness, a series of WT mice were implanted with osmotic pumps to systemically deliver either a selective NADPH oxidase inhibitor, apocynin at 3 mg/kg/day, vehicle (dimethylsulfoxide, DMSO) or buffered saline throughout LTIH exposure for 8 wks. Pumps were removed and mice were implanted for sleep recordings as described above for studies in gp91^phox null mice. Apocynin therapy prevented both LTIH reduced wake times and shortened sleep latency."}, "[3]": {"tested_on": "iNOS", "test": "iNOS activity in lateral basal forebrain homogenates ([14C] L-arginine to L-citrulline conversion)", "format": "in vivo, mice", "settings": "for LTIH increase in iNOS activity: apocynin throughout LTIH", "protocol": "FIG. 5. NADPH oxidase inhibition confers resistance to the long-term intermittent hypoxia (LTIH) proinflammatory response. Proinflammatory gene expression was measured in micropunches in the lateral basal forebrains in gp91^phox wild type controls (gp91^phox WT, n=10) and gp91^phox null mice (gp91^phox null, n=10) for A, TNF-a; B, COX-2 and C, iNOS mRNA copies/2 µg total RNA. D. Total NOS activity (left columns), measured as L-arginine conversion of [^14C] L-arginine to L-citrulline and iNOS activity (right columns) was measured using […] S-Ethyl-N-[4-trifluoromethyl)phenyl]isothiourea (ETPI) added to homogenates (12). […] A detailed description of the long-term intermittent hypoxia (LTIH) protocol was recently published. An automated nitrogen/oxygen delivery profile system (Oxycycler model A84XOV; Biospherix, Redfield, N.Y.) produced brief reductions in housing chamber ambient oxygen levels from 21% to 10% for 5 sec every 90 sec, resulting in arterial oxyhemoglobin saturation fluctuations between 95-98% and 83-86%. Sham LTIH, with ambient FIO2 fluctuations from 21% to 19% every 90 sec, held arterial oxyhemoglobin values constant between 96-98%. Both conditions were produced for 10 hr of the lights-on period for a total of 8 wks. Humidity, ambient CO2 and environmental temperature were held constant. To determine if NADPH oxidase inhibition would also prevent LTIH gene responses, a third series of mice examined for gene responses were WT mice treated systemically throughout LTIH or sham LTIH with 3 mg/kg/day apocynin (Sigma-Aldrich) in DMSO, DMSO or PBS delivered subcutaneously (n=10/group) by way of micro-osmotic pump (1002, Durect, Cupertino, Calif.). […] Lateral basal forebrain iNOS activity was compared in mice treated with or without apocynin throughout LTIH (FIG. 5D). Apocynin therapy, relative to saline therapy had no effect on baseline (sham LTIH) iNOS activity. […] Thus, apocynin therapy throughout LTIH prevented the expected increase in iNOS activity."}, "[4]": {"tested_on": "COX-2 mRNA", "test": "Taqman real-time PCR of COX-2 gene response to LTIH, lateral basal forebrain", "format": "in vivo, mice", "settings": "apocynin in DMSO vehicle throughout LTIH", "excerpt": "as §1"}, "[5]": {"tested_on": "TNF-α mRNA", "test": "Taqman real-time PCR of TNF-α gene response to LTIH, lateral basal forebrain", "format": "in vivo, mice", "excerpt": "A detailed description of the long-term intermittent hypoxia (LTIH) protocol was recently published. An automated nitrogen/oxygen delivery profile system (Oxycycler model A84XOV; Biospherix, Redfield, N.Y.) produced brief reductions in housing chamber ambient oxygen levels from 21% to 10% for 5 sec every 90 sec, resulting in arterial oxyhemoglobin saturation fluctuations between 95-98% and 83-86%. Sham LTIH, with ambient FIO2 fluctuations from 21% to 19% every 90 sec, held arterial oxyhemoglobin values constant between 96-98%. Both conditions were produced for 10 hr of the lights-on period for a total of 8 wks. Humidity, ambient CO2 and environmental temperature were held constant. To determine if LTIH results in lasting increases in NADPH oxidase and microglial gene responses, real-time Taqman PCR was performed on laser-captured microdissections or macropunches of selected brain regions in mice exposed to sham LTIH or LTIH, two weeks into recovery to parallel sleep studies, using our methods, as previously published (12, 25). Real-time measurement of a NADPH oxidase subunit (p67^phox). To accomplish this, two weeks following conditions of either sham LTIH or LTIH, mice were perfused with PBS; brains were immediately frozen and sectioned (10 μm) for laser-capture microdissections of the following wake-active or hypoxia sensitive regions: frontal cortex (layer V), nucleus basalis […]/substantia inominata/horizontal diagonal band, hippocampus CA1, striatum, lateral hypothalamus, dorsal raphe nucleus, and locus coeruleus, or the following sleep-active adjacent brain regions: median septal diagonal band, medial preoptic area, and ventrolateral preoptic area, collecting 100 captures (40 μm diameter) per region in each mouse (n=6 mice/condition). RNA was purified and cDNA created for primer sets for primer/probe sets in Table 1, for Taqman real time PCR (SDS-7900HT, ABI). […] A second series of mice used for LTIH gene responses were gp91^phox-/- and +/+ mice exposed to either sham LTIH or LTIH for proinflammatory responses. […]"}, "[6]": {"settings": "apocynin 3 mg/kg/day throughout LTIH"}}, "note": "“Also recorded” adds a separate entry of the source."}
{"smiles": "COc1cc(C(C)=O)ccc1O", "note": "[apocynin, 4-hydroxy-3′-methoxy-acetophenon]", "values": [{"measurement": "reduction in iNOS mRNA", "setting": "[1]", "result": 94, "unit": "%"}, {"measurement": "NREMS time", "setting": "[2]; apocynin 3 mg/kg/day by osmotic pump throughout 8 wks LTIH, relative to saline and DMSO vehicle", "result": "reduced NREMS time"}, {"measurement": "wake time/24 hr", "setting": "[2]; apocynin 3 mg/kg/day by osmotic pump throughout 8 wks LTIH, relative to saline and DMSO vehicle, 2 wk into recovery", "result": "increased wake times; also recorded: prevented LTIH-induced impaired wakefulness and hypersomnolence"}, {"measurement": "sleep latency vs WT mice without intervention or sham LTIH", "setting": "[2]; [6]", "result": "not significantly different"}, {"measurement": "sleep latency", "setting": "[2]; [6]", "result": "significantly higher than LTIH DMSO vehicle-treated mice"}, {"measurement": "sleep latency", "setting": "[2]; apocynin 3 mg/kg/day throughout LTIH, listed as Apocynin", "result": "prevented LTIH reduced sleep latency"}, {"measurement": "reduction in iNOS activity, apocynin treated vs. untreated mice", "setting": "[3]; LTIH", "result": 60, "unit": "%"}, {"measurement": "LTIH increase in iNOS activity", "setting": "[3]", "result": "prevented the LTIH increase in iNOS activity"}, {"measurement": "LTIH increase in iNOS activity", "setting": "[3]; listed as Apocynin", "result": "prevents the anticipated LTIH increase in iNOS activity"}, {"measurement": "baseline (sham LTIH) iNOS activity, relative to saline therapy", "setting": "[3]; sham LTIH", "result": "no effect"}, {"measurement": "COX-2 gene expression, reduction relative to sham LTIH", "setting": "[4]", "result": 65, "unit": "%"}, {"measurement": "LTIH COX-2 response", "setting": "[4]", "result": "completely blocked the LTIH COX-2 response"}, {"measurement": "LTIH increase in TNF-α gene expression (vs sham LTIH)", "setting": "[5]; apocynin throughout LTIH", "result": "completely prevented the increases in TNF-α gene expression"}, {"measurement": "TNF-α response as % of the saline LTIH response", "setting": "[5]; apocynin throughout LTIH", "result": 7, "unit": "%"}, {"measurement": "LTIH TNF-α response, Apo vs. DMSO, % lower", "setting": "[5]; apocynin vs DMSO vehicle during LTIH", "result": 73, "unit": "%"}]}
